Test results: ChEMBL document CHEMBL1201862, “PubChem BioAssay data set” (2004)
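Results reflect a 48-hour exposure of cells in 96-well plates to compound at five concentrations. Here, GI50 denotes the concentration required for 50% inhibition of growth.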 Calls of active or inactive are those of the source. Rule as the data show it: active = GI50 up to about 1.1 µM and inactive = higher.

Tests used:
Assay in all cases: NCI-60 cell line screen, 48 h
OVCAR-4 = tested on: OVCAR-4
Malme-3M = tested on: Malme-3M
CCRF-CEM = tested on: CCRF-CEM
HT-29 = tested on: HT-29
HOP-62 = tested on: HOP-62
OVCAR-3 = tested on: OVCAR-3
SNB-78 = tested on: SNB-78
UACC-257 = tested on: UACC-257
SNB-19 = tested on: SNB-19
A549 = tested on: A549
K562 = tested on: K562
HOP-92 = tested on: HOP-92
KM12 = tested on: KM12
OVCAR-5 = tested on: OVCAR-5
MDA-MB-435 = tested on: MDA-MB-435
DU-145 = tested on: DU-145
NCI/ADR-RES = tested on: NCI/ADR-RES
BT-549 = tested on: BT-549
SR = tested on: SR
MCF7 = tested on: MCF7

Measured: GI50

O=c1cc2ccccc2nn1Cc1ccccc1Cl
inactive: OVCAR-4 > 100 µM | Malme-3M > 100 µM | CCRF-CEM > 100 µM | HT-29 > 100 µM | HOP-62 > 100 µM | OVCAR-3 94.6 µM | SNB-78 > 100 µM | UACC-257 > 100 µM | SNB-19 > 100 µM | A549 > 100 µM | K562 85.3 µM | HOP-92 71.9 µM | KM12 > 100 µM | OVCAR-5 > 100 µM

CCOc1ccc(C2=C(Cl)c3cc(OC)c(OC)cc3C2Cl)cc1 (configuration not stated)
inactive: Malme-3M 33.8 µM | CCRF-CEM 25.2 µM | HT-29 32.1 µM | OVCAR-3 59 µM | SNB-78 27.4 µM | SNB-19 > 100 µM | K562 > 10 µM | HOP-92 25.4 µM

COc1ccc(C=O)c(NC(=O)C(C)C)c1
inactive: OVCAR-4 27 µM | Malme-3M 27.4 µM | CCRF-CEM > 10 µM | HT-29 66.7 µM | OVCAR-3 30.5 µM | SNB-78 66.1 µM | UACC-257 27.2 µM | SNB-19 72.1 µM | A549 27.2 µM | K562 31 µM | HOP-92 18.2 µM | KM12 > 10 µM | OVCAR-5 > 100 µM

O=C1c2ccccc2CCCCCCCCCCC12OCCCO2
inactive: OVCAR-4 57.1 µM | Malme-3M 30.9 µM | CCRF-CEM 25.3 µM | HT-29 15.1 µM | HOP-62 49.9 µM | OVCAR-3 32.5 µM | SNB-78 22.6 µM | UACC-257 24 µM | SNB-19 29.5 µM | A549 28.8 µM | K562 68.4 µM | KM12 27.6 µM | OVCAR-5 26.7 µM

Cc1ccc(C(=O)/C=C2/Nc3ccccc3NC2=O)c(C)c1
inactive: OVCAR-4 2.7 µM | MDA-MB-435 30.8 µM | DU-145 30.1 µM | Malme-3M 54.6 µM | CCRF-CEM 62.5 µM | NCI/ADR-RES 7.89 µM | HT-29 23.4 µM | BT-549 35.4 µM | HOP-62 5.62 µM | OVCAR-3 32 µM | SR 29.4 µM | UACC-257 42.1 µM | SNB-19 9.71 µM | A549 13.7 µM | MCF7 13.3 µM | K562 61.5 µM | HOP-92 3.04 µM | KM12 20.8 µM | OVCAR-5 44.7 µM

CC(=O)OCCOCNC(=S)N/N=C(\C)c1cnc2ccccc2n1
inactive: OVCAR-4 57.1 µM | Malme-3M 40.6 µM | CCRF-CEM 7.46 µM | HT-29 29.6 µM | HOP-62 86.3 µM | OVCAR-3 16.8 µM | SNB-78 > 100 µM | SR > 100 µM | UACC-257 48.4 µM | SNB-19 99.3 µM | A549 26.6 µM | K562 43.4 µM | KM12 46.5 µM | OVCAR-5 7.91 µM

CSc1nc(C)c(CCOC(C)=O)c(Cl)n1
inactive: OVCAR-4 > 100 µM | MDA-MB-435 > 100 µM | DU-145 > 100 µM | Malme-3M > 100 µM | CCRF-CEM > 100 µM | NCI/ADR-RES > 100 µM | HT-29 > 100 µM | BT-549 > 100 µM | HOP-62 > 100 µM | OVCAR-3 > 100 µM | SR > 100 µM | UACC-257 > 100 µM | SNB-19 > 100 µM | A549 > 100 µM | MCF7 > 100 µM | K562 > 100 µM | HOP-92 > 100 µM | KM12 > 100 µM | OVCAR-5 > 100 µM

COc1cccc(C2c3cc4c(cc3OC(C)(O)C2C)OCO4)c1O (configuration not stated)
inactive: OVCAR-4 11.6 µM | MDA-MB-435 1.42 µM | DU-145 4.48 µM | Malme-3M 6.18 µM | CCRF-CEM 4.45 µM | NCI/ADR-RES 2.13 µM | HT-29 3.88 µM | BT-549 9.71 µM | HOP-62 4.2 µM | OVCAR-3 2.81 µM | SR 2.18 µM | UACC-257 8.15 µM | SNB-19 5.2 µM | A549 4.57 µM | MCF7 4.25 µM | K562 3.87 µM | HOP-92 6 µM | KM12 3.33 µM | OVCAR-5 8.09 µM

C[C@]12CCC(=O)CC1CCCC2=O (some centres not stated)
inactive: OVCAR-4 > 100 µM | Malme-3M > 100 µM | CCRF-CEM > 100 µM | HT-29 > 100 µM | HOP-62 > 100 µM | OVCAR-3 > 100 µM | SNB-78 > 100 µM | UACC-257 > 100 µM | SNB-19 > 100 µM | A549 > 100 µM | K562 > 100 µM | HOP-92 > 100 µM | KM12 > 100 µM

Cc1ccc(S(=O)(=O)N/N=C/C(=C/c2ccc(Cl)cc2)CC(/C=N/NS(=O)(=O)c2ccc(C)cc2)=C\c2ccc(Cl)cc2)cc1
inactive: OVCAR-4 5.42 µM | MDA-MB-435 3.72 µM | DU-145 25.8 µM | Malme-3M 8.2 µM | CCRF-CEM 2.98 µM | NCI/ADR-RES 7.36 µM | HT-29 5.51 µM | BT-549 6.15 µM | HOP-62 19.5 µM | OVCAR-3 3.07 µM | SR 2.61 µM | UACC-257 11.4 µM | SNB-19 8.77 µM | A549 17.1 µM | MCF7 2.86 µM | K562 2.86 µM | HOP-92 2.23 µM | KM12 7.87 µM | OVCAR-5 15.3 µM

NC(=S)N/N=C\c1ccc(OCc2cccc(COc3ccc(/C=N/NC(N)=S)cc3)n2)cc1
inactive: OVCAR-4 44.2 µM | MDA-MB-435 63.8 µM | DU-145 34.8 µM | Malme-3M 86.5 µM | CCRF-CEM 45.7 µM | NCI/ADR-RES > 100 µM | HT-29 > 100 µM | BT-549 2.39 µM | HOP-62 > 100 µM | OVCAR-3 32.7 µM | SR 38.7 µM | UACC-257 20.2 µM | SNB-19 > 100 µM | A549 > 100 µM | MCF7 32.5 µM | K562 18.6 µM | HOP-92 > 100 µM | KM12 > 100 µM | OVCAR-5 17.3 µM

O=c1cccccc1NCCCCCCNc1cccccc1=O
inactive: OVCAR-4 > 100 µM | Malme-3M > 100 µM | CCRF-CEM > 100 µM | HT-29 > 100 µM | HOP-62 > 100 µM | OVCAR-3 > 100 µM | SNB-78 > 100 µM | UACC-257 > 100 µM | SNB-19 > 100 µM | A549 > 100 µM | K562 > 100 µM | KM12 > 100 µM | OVCAR-5 > 100 µM

CCCCCC(=O)c1ccc2[nH]c3c(C)cc([N+](=O)[O-])c(C)c3c2c1
inactive: OVCAR-4 89.3 µM | Malme-3M > 100 µM | CCRF-CEM 91.2 µM | HT-29 75 µM | HOP-62 > 100 µM | OVCAR-3 67.6 µM | SNB-78 > 100 µM | SR 56.8 µM | UACC-257 > 100 µM | SNB-19 > 100 µM | A549 49.4 µM | K562 25.4 µM | KM12 > 100 µM | OVCAR-5 > 100 µM
